These results are taken from patent publication US20030125269A1, “T-TYPE CALCIUM CHANNEL” (priority 1998, published 2003).

“Also recorded” adds a separate entry of the source.

Assay [1] relates to INS-1 cells. In words: Basal [Ca^2+]i in INS-1 cells by fura-2 fluorescence. Particulars: 5 mM for 1 hour, followed by 3 hour recovery. The format is cell-based, rat. The method, then: [Ca^2+]i was directly measured by the ratio of fluorescence excitations at Ca^2+-bound […], and then the ratio was converted to the calcium concentration. The bath solution contained […], 4 mM KCl, 2 mM CaCl2, and 2 mM MgCl2.
The effect of basal [Ca^2+]i on Ca^2+ influx was examined using the Ca^2+ dye indicator fura-2 and fluorescence measurements. Voltage-dependent Ca^2+ influx in a single cell was obtained by perfusion of an osmotically balanced solution containing 50 mM KCl into the recording chamber. […] The resting basal [Ca^2+]i in INS-1 cells was approximately 60-80 nM under the experimental conditions. [Ca^2+]i was determined by a standard curve obtained from a fura-2 calcium imaging kit (Molecule Probes). The empirical Kd obtained for calcium binding to fura-2 in the system was 296±20 nM. When basal [Ca^2+]i remains low, subsequent voltage stimulation with 50 KCl induces rapid and large calcium influx into the cell and these calcium changes are stereotyped upon repetitive stimulation when basal calcium is restored (FIG. 10). In this experiment, following the 50 KCl depolarization, the cell was repolarized by perfusion of the original 5 mM KCl solution. After repolarization, basal [Ca^2+]i slowly reset and then a second 50 KCl depolarization induced a similar [Ca^2+]i transient. When the basal calcium is not allowed to reset, a defect in the second voltage induced calcium transient occurs (FIG. 11). […] Therefore effectors of basal [Ca^2+]i will have important impact on the amount of calcium that can enter the cell.

The target of another assay is T-type Ca^2+ current (Rattus norvegicus, UniProt O54898). In words: Patch clamp recording of T-type Ca^2+ current in insulin-secreting (INS-1) cells. It is filed as cell-based. Particulars: drug diffusing system. The protocol: (§1) Cell Culture—INS-1 cells were cultured in RPMI 1640 medium containing 10% FBS, 25 U/ml penicillin, […] streptomycin and 50 μM mercaptoethanol in an atmosphere of 5% CO2 in air, at 37° C. for 2-5 days before recording.
(§2) β-cells Electrophysiological recording—The whole-cell recordings were carried out by the standard “giga-seal” patch clamp technique (Hamill et al.). The whole-cell recording pipettes were made of hemocapillaries (Warner), pulled by a two-stage puller (PC-10, Narishige International, New York, N.Y.), and heat polished with a microforge (MF200-1, World Precision Instruments, Sarasota, Fla.) before use. Pipette resistance was in the range of 2-5 MΩ in the internal solution. The recordings were performed at room temperature (22-25° C.). Currents were recorded using an EPC-9 patch-clamp amplifier (HEKA) and filtered at 2.9 kHz. Data were acquired with Pulse/PulseFit software (HEKA). Voltage-dependent currents were corrected for linear leak and residual capacitance by using an on-line P/n subtraction paradigm.
(§3) Solutions—The extracellular solution used in whole-cell Ca^2+ current recording contained (in mM): 10 CaCl21 110 tetraethylammonium-Cl (TEA-Cl), 10 CsCl, 10 N-2-hydroxyethylpiperazine-N′-2-ethanesulfonic acid (HEPES), 40 sucrose, 0.5 3,4-diaminopyridine, pH 7.3. The intracellular solution contained (in mM): 130 N-methyl-D-glucamine, 20 EGTA (free acid), 5 bis (2-aminophenoxy) ethane-N,N,N′,N′-tetraacetate (BAPTA), 10 HEPES, 6 MgCl2, 4 Ca(OH)2/pH was adjusted to 7.4 with methanesulfonate. 2 mM Mg-ATP was included in the pipette solution to minimize rundown of L-type Ca^2+ currents. For Perforated-patch recording, the extracellular solution contained (in mM): 26 Sucrose, 30 TEA-Cl, 10 HEPES, 5 KCl, 2 CaCl2, MgCl2, pH 7.3. The pipette solution contained (in mM): 65 CsOH, 65 CsMS, 20 sucrose, 10 HEPES, 10 MgCl2, 1 Ca(OH)2, pH 7.4.
(§4) The T-type Ca^2+ current was measured at −30 mV when the membrane was held at −90 mV and the L-type current was measured at +20 mV when the membrane was held at −40 mV. The currents were measured twice at each concentration of mibefradil with 2 min in between measurements.
(§5) A drug diffusing system was then used to test the reversibility of the antagonism of T- and L-type Ca^2+ currents by mibefradil. Small volumes (approximately 2 μl) of drugs were delivered in close proximity to the recording cell with a quartz capillary positioned by a micromanipulator. After administration, drugs diffused throughout the entire recording chamber containing 2 ml of bath solution. This drug diffusing system was used to test the reversibility of 30 μM of NiCl2 on the T-type Ca^2+ currents (FIG. 4).

A further assay has as its system NIT-1 cells. The experiment in a line: Spontaneous elevation of [Ca^2+]i in NIT-1 cells, Fluo-3 fluorescent imaging. Particulars: 10 μM, 3.3 mM glucose, 10 minute observation. The format is cell-based, mouse. The method, then: NIT-1 cells were cultured in medium containing 3.3 mM glucose and preloaded with 2.5 μM Fluo-3 μM. The numbers of spontaneous calcium elevated cells were counted and compared to the total cells being used for a 10 minute observation period. 10 μM NiCl2 inhibited 90% of spontaneous elevation of basal Ca^2+.

For assay [2], the system named is INS-1 cells. The experiment in a line: Transient spontaneous calcium spikes in a single INS-1 cell, epi-fluorescence. It is filed as cell-based, rat. Particulars: 30 μM, bath solution without glucose. The source says:
The cellular mechanism of the spontaneous elevation of intracellular Ca^2+ was investigated with the epi-fluorescence measurement method. […] The Role of T-type Ca^2+ channels in this spontaneous process was examined as well. […] These spontaneous calcium spikes may contribute to basal insulin secretion and control of basal [Ca^2+]i.

In assay [3] the test system is INS-1 cells. The experiment in a line: Action potentials (excitability) of INS-1 cells. It is filed as cell-based, rat. As to conditions: 100 μM. The method, then: Particularly, activation of T type Ca^2+ channels will increase the firing frequency of the depolarizing spikes mediated by opening L type Ca^2+ channels (FIG. 19A). Activation of T type Ca^2+ channel will also decrease the time of developing action potential elicited by up-threshold depolarizations (FIG. 19B).
To further establish that T type Ca^2+ current enhances β-cells excitability, 100 μM NiCl2 was administered to effectively block T type Ca^2+ channels.

Assay [4] relates to INS-1 cells. In words: Glucose-induced insulin secretion in INS-1 cells. Particulars: 11.1 mM glucose, variable concentrations of NiCl2. It is filed as cell-based, rat.
A further assay has as its system HIT-T15. The experiment in a line: Glucose-induced insulin secretion in HIT-T15 cells. The format is cell-based. Particulars: 11.1 mM glucose, variable concentrations of NiCl2.
For a further assay, the system named is LVA Ca^2+ current. In words: Cytokine-induced LVA Ca^2+ current in primary cultured mouse islet cells. The format is cell-based. Particulars: 10 μM; IL-1β 25 U/ml and IFNγ 300 U/ml for 6 h; n=4. The method, then: The effects of chronic cytokine treatment on the voltage-sensitive Ca^2+ currents in primary cultured mouse islet cells was examined. After treatment with IL-1β (25 U/ml) and IFNγ (300 U/ml) for 6 h, an LVA Ca^2+ current was induced in these cells (FIG. 23A). This current was present in 48% of cytokine-treated mouse islet cells. No such current was observed when the cells were treated with either IL-1β or IFNγ alone. […] This LVA current has not been observed in non-treated cells. […] It has been reported that low concentration of NiCl2 selectively block LVA current, a profound […] in Ca^2+ current density was observed over the voltages between −20 and 20 mV.

The next assay concerns mouse islet cells. In words: Cytokine-induced increase in basal [Ca^2+]i in primary cultured mouse islet cells. The format is cell-based. Particulars: 10 μM; IL-1β 25 U/ml and IFNγ 300 U/ml for 6 h. The source says:
LVA Ca^2+ channels are activated at low membrane potentials. This unique feature may allow then to regular [Ca^2+]i under nonstimulatory conditions. Indeed, basal [Ca^2+]i in cytokine-treated cells was approximately 3-fold higher than in nontreated cells (FIG. 24A).

The test system of assay [5] is β-TC3 cells. In words: Cytokine-induced DNA fragmentation in β-TC3 cells. It is filed as cell-based, mouse. Particulars: β-TC3 cells (n=2); same results in NIT-1 cells (n=3).
Assay [6] deals with β-TC3 cells. The experiment in a line: Cytokine-induced cell death in β-TC3 cells. Particulars: NiCl2 20 μM, nifedipine 10 μM; IL-1β 25 U/ml, IFNγ 100 U/ml, TNFα 100 U/ml. It is filed as cell-based, mouse. The text has this:
The function of LVA Ca^2+ channels in cytokine-mediated cell death in β-TC3 cells was then examined.

A further assay has as its system L-type Ca^2+ current. The experiment in a line: Patch clamp recording (whole-cell and perforated patch) of L-type Ca^2+ current in insulin-secreting (INS-1) cells. It is filed as cell-based, rat. As to conditions: 1 μM in the pipette solution, whole-cell, 5 min after patch formation. The protocol: as §1, §2, §3, §4, §5
This hypothesis was tested by applying a very low dose of mibefradil on cells and recording the L-type Ca^2+ currents for a long time in the perforated patch-clamp configuration.

Chain of T-type Ca^2+ current (O54898 whole entry): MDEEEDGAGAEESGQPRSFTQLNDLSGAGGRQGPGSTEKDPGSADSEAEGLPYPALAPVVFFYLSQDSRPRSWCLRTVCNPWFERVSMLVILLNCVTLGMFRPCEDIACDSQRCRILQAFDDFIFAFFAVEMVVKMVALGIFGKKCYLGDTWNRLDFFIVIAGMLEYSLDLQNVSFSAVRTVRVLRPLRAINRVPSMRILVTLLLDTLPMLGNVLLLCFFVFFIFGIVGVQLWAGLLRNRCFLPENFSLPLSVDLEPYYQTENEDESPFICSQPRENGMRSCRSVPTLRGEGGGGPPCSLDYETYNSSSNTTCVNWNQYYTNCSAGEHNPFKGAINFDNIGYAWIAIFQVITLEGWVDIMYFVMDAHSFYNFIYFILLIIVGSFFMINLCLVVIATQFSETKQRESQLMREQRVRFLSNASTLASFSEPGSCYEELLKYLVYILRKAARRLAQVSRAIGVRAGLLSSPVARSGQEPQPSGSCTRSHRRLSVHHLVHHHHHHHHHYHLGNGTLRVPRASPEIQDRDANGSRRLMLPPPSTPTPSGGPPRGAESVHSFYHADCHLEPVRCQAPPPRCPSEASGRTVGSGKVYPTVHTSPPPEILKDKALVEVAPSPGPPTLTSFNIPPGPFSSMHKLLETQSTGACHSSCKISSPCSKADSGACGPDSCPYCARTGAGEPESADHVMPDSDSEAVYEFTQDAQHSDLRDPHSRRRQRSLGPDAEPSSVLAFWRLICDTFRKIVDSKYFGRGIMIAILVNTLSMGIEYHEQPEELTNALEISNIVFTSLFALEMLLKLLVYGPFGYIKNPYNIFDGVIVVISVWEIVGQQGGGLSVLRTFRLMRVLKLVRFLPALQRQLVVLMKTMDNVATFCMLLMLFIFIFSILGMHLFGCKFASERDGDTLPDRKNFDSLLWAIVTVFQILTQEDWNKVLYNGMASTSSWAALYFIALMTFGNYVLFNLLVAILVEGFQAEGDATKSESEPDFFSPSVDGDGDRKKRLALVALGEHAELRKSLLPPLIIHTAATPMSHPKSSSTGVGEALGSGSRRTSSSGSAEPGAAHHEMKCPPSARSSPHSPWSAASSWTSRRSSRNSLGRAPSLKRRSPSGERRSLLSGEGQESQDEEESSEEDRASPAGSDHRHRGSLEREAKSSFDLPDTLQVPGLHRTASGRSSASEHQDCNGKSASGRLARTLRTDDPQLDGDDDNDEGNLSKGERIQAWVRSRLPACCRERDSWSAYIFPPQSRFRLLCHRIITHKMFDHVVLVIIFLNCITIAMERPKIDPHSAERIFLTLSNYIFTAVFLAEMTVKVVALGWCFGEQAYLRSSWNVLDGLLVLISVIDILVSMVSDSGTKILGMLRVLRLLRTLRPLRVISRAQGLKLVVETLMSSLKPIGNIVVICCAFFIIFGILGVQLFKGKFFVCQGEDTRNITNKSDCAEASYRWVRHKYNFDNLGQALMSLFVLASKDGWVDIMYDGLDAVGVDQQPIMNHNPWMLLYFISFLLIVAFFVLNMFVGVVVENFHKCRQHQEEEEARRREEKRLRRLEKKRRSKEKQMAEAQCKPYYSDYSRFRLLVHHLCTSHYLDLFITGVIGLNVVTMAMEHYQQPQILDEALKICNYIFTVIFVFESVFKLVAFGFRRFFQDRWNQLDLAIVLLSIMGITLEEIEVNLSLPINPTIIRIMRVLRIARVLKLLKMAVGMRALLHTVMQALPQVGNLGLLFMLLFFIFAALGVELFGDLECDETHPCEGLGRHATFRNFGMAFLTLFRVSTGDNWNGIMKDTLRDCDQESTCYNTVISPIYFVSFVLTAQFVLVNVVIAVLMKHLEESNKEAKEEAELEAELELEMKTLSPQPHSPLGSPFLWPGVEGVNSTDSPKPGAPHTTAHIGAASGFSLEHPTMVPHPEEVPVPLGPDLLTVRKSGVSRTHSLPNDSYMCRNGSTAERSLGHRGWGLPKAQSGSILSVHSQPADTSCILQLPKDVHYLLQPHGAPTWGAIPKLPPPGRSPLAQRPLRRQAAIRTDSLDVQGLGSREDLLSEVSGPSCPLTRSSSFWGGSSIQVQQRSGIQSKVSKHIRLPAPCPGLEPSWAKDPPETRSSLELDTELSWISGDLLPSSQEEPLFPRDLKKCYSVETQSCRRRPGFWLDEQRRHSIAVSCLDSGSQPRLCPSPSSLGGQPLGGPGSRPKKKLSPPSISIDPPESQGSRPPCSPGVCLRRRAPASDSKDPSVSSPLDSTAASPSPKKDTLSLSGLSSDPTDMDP

On to `CN(N=O)C(=O)N[C@H]1C(O)O[C@H](CO)[C@@H](O)[C@@H]1O` (mixture of isomers) [streptozotocin], for which, in the assay on INS-1 cells [1], the “calcium influx on stimulation by 50 KCl” value was “reduced calcium influx compared to control cells” and the “change in basal calcium” value was “two-fold increase in basal calcium”.

Consider `[Cl][Ni][Cl]` [NiCl2], for which the “amplitude of T-type current after drug delivery, % of initial level” value at T-type Ca^2+ current (about 2 μl of 30 μM delivered near the cell, rapid reduction) was determined as 40%. The “amplitude of T-type current after recovery, % of initial level” value on T-type Ca^2+ current (about 2 μl of 30 μM, within 3 minutes) was found to be 80%. For the same compound, the “reversibility of the inhibition of T-type Ca^2+ current” value at T-type Ca^2+ current (small volume delivered near the cell) is given as “reversibly block T type Ca^2+ current”. Besides, in the assay with NIT-1 cells, the “inhibition of spontaneous elevation of basal Ca^2+” value came to 90%. Moreover, the “frequency of spontaneous calcium spikes” value in the assay with INS-1 cells [2] was “reduced the frequency of spontaneous calcium spikes immediately; also recorded: reduced the frequency of transient spontaneous elevation of [Ca^2+]i”. Moreover, in the assay on INS-1 cells [3], the “onset and number of action potentials” value was “a delay in the onset of an action potential and a decrease in number of action potentials”. In addition, the insulin secretion result in the assay on INS-1 cells [4] was “reduced insulin secretion in a dose-dependent manner”; in the assay on HIT-T15, “not affected”. For the same compound, in the assay with LVA Ca^2+ current, the “block of cytokine-induced LVA Ca^2+ current” value was “blocked”. In addition, the “effect on cytokine-induced increase in basal [Ca^2+]i” value with mouse islet cells was “blocked; also recorded: prevented the increase in [Ca^2+]i”. Also, the “effect on cytokine-induced DNA fragmentation” value with β-TC3 cells [5] was “prevented cytokine-induced DNA fragmentation”. In addition, the “effect on cytokine-induced cell death” value in the assay on β-TC3 cells [6] was “effectively reduced the β-cells killing potency of cytokines; also recorded: significantly reduced cell death”.

In the case of `N=C(N)NC(=O)c1nc(Cl)c(N)nc1N` [amiloride], the “effect on cytokine-induced DNA fragmentation” value in the assay with β-TC3 cells [5] is given as “prevented cytokine-induced DNA fragmentation”.

As to `CC(C)[C@H]1c2ccc(F)cc2CC[C@]1(O)CCN(C)CCCc1nc2ccccc2[nH]1.Cl` [dm-mibefradil, (1S,2S)-2-[2-[[3-(2-Benzimidazolyl)propyl]methylamino]ethyl]-6-fluoro-1,2,3,4-tetrahydro-1-isopropyl-2-napthyl hydroxy hydrochloride], the “effect on L-type Ca^2+ current from inside of cells” value with L-type Ca^2+ current is “specifically blocked”.
